Assay results: patent publication US6608086B2, “Dihydropyridines and new uses thereof” (Synaptic Pharmaceutical Corporation, priority 1993, dated 2003)
Where two headings read alike, the source gives them in different places.

Tests used:
[1] = biological target: T1, α1B Human Adrenergic Receptor (Homo sapiens, UniProt P35368); experiment: Radioligand binding, [3H]prazosin, cloned human α1B adrenergic receptor
T1 construct: The entire coding region of α1B (1563 bp); expressed in transfected cells
T1 sequence (P35368 1-520): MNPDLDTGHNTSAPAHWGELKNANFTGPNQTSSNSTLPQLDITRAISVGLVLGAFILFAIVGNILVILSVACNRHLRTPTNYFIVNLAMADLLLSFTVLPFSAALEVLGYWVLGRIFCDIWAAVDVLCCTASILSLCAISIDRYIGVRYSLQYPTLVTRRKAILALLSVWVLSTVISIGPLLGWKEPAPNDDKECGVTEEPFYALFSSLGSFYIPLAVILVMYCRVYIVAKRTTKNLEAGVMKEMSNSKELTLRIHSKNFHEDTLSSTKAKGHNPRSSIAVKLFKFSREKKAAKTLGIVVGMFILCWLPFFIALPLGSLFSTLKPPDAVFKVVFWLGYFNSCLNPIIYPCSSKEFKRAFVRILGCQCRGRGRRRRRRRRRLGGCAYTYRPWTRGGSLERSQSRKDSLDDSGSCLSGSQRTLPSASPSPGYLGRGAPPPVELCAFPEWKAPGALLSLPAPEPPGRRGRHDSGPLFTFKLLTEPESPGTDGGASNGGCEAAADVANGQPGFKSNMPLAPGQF
Procedure, shortened: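 Membranes from stably transfected LM(tk−) cells, resuspended in 50 mM Tris-HCl, 1 mM MgCl2, 0.1% ascorbic acid, pH 7.5, were incubated with 0.5 nM [3H]prazosin for 20 min at 37° C. Nonspecific binding defined with 10 μM phentolamine; bound ligand separated by GF/B filtration.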

[2] = biological target: T2, α1A Human Adrenergic Receptor (Homo sapiens, UniProt P25100); experiment: Radioligand binding, [3H]prazosin, cloned human α1A adrenergic receptor
T2 construct: The entire coding region of α1A (1719 bp); expressed in transfected cells
T2 sequence (P25100 1-572): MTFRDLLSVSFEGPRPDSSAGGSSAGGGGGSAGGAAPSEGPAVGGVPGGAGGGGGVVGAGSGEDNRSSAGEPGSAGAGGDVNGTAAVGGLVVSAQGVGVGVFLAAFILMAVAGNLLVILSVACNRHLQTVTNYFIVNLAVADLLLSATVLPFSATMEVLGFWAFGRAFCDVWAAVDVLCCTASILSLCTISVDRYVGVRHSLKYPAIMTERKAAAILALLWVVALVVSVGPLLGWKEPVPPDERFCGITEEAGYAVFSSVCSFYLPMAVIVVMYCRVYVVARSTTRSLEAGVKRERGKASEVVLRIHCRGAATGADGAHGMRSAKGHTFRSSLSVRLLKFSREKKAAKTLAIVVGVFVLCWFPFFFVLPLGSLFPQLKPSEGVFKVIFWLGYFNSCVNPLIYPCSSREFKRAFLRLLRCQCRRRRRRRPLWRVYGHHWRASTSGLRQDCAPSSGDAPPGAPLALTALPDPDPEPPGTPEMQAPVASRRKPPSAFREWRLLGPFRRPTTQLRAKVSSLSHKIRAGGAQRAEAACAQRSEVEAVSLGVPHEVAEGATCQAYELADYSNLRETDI
Procedure, shortened: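 Membranes from LM(tk−) cells transfected with cloned human α1A receptor, prepared in 50 mM Tris-HCl, 1 mM MgCl2, 0.1% ascorbic acid pH 7.5, were incubated with 0.5 nM [3H]prazosin at 37° C for 20 min. Nonspecific binding was defined with 10 μM phentolamine; bound ligand was separated by GF/B filtration.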

[3] = biological target: T3, α1C Human Adrenergic Receptor (Homo sapiens, UniProt P35348); experiment: Radioligand binding, [3H]prazosin, cloned human α1C adrenergic receptor
T3 construct: The entire coding region of α1C (1401 bp); expressed in transfected cells
T3 sequence (P35348 1-466): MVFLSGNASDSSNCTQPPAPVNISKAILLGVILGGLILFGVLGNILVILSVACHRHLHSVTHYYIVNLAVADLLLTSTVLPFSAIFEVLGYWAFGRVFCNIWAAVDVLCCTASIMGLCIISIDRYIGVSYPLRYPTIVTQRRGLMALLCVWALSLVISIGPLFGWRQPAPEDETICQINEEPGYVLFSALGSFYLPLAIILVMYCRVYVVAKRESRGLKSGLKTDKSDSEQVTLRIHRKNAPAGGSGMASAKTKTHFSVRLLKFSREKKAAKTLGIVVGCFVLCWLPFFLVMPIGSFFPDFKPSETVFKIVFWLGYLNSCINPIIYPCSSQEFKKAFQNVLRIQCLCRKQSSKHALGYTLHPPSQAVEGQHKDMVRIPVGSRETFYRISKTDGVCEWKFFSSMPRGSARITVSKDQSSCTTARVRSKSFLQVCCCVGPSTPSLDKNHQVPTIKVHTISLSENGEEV
Procedure, shortened: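 Read-out is filter-retained [3H]prazosin (0.5 nM) bound to membranes of LM(tk−) cells stably carrying the human α1C receptor. Incubation ran 20 min at 37° C. at pH 7.5, with 10 μM phentolamine marking nonspecific binding.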

L-type calcium channel = biological target: T4, L-type calcium channel (Rattus norvegicus, UniProt P22002); experiment: Competition binding of [3H]nitrendipine to membrane fragments of rat cardiac muscle
T4 construct: membrane fragments of rat cardiac muscle; from tissue; host or cells: rat cardiac muscle membranes
T4 sequence (P22002 whole entry, other chains not shown, the tested form may be a part): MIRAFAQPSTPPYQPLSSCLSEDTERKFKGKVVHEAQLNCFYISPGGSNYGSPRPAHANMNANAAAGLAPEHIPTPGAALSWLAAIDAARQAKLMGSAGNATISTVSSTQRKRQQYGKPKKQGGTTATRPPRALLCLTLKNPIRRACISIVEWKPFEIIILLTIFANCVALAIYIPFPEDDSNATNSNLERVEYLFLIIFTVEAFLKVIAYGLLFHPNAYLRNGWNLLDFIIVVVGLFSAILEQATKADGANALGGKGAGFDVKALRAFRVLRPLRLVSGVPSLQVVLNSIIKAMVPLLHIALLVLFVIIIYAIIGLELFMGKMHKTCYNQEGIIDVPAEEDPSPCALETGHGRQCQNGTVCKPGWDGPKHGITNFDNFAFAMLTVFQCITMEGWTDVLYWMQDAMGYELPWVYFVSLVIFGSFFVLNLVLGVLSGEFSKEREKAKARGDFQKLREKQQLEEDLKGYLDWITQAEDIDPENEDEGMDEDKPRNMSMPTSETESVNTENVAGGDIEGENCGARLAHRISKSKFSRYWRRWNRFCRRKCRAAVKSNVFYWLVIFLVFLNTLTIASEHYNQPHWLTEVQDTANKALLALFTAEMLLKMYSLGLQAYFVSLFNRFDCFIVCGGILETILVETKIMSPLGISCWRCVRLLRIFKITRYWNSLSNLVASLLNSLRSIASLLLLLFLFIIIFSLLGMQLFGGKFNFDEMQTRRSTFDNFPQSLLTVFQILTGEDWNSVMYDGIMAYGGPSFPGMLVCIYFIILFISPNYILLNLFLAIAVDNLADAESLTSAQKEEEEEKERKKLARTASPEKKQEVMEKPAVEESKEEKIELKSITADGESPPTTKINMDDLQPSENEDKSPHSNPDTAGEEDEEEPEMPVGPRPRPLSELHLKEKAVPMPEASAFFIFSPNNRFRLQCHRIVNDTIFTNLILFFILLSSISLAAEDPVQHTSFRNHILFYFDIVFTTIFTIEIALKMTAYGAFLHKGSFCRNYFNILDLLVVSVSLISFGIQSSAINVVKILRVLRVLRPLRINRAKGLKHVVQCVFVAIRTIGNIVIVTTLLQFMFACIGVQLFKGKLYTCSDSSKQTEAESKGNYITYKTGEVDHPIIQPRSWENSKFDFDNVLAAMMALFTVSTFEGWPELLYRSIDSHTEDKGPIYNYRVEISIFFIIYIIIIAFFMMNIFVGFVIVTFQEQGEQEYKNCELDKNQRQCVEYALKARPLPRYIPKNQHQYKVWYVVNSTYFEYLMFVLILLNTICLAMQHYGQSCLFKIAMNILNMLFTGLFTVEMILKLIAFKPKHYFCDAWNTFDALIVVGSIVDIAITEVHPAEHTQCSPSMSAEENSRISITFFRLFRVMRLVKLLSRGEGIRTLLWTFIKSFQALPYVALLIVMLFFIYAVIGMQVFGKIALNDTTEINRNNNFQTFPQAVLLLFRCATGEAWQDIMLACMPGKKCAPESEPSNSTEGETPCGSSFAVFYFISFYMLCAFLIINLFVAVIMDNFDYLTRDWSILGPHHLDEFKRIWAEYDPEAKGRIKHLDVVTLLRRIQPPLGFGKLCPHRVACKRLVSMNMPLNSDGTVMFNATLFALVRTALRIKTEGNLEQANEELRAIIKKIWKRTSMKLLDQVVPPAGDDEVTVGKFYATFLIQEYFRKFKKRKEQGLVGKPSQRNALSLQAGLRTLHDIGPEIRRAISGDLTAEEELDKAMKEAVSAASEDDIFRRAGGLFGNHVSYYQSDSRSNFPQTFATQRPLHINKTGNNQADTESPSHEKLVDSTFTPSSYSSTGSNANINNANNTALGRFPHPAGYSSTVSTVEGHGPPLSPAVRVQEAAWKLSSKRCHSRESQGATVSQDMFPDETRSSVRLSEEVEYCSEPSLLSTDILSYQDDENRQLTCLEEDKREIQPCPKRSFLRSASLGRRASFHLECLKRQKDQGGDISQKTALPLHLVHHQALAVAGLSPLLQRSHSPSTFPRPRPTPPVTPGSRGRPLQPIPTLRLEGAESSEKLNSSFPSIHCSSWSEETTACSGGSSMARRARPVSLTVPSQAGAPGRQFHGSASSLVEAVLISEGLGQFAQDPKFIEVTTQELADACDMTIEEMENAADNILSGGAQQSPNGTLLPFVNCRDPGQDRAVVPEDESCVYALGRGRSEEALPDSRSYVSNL
T4 sequence (P54290 25-944 partner limits assumed, other chains not shown): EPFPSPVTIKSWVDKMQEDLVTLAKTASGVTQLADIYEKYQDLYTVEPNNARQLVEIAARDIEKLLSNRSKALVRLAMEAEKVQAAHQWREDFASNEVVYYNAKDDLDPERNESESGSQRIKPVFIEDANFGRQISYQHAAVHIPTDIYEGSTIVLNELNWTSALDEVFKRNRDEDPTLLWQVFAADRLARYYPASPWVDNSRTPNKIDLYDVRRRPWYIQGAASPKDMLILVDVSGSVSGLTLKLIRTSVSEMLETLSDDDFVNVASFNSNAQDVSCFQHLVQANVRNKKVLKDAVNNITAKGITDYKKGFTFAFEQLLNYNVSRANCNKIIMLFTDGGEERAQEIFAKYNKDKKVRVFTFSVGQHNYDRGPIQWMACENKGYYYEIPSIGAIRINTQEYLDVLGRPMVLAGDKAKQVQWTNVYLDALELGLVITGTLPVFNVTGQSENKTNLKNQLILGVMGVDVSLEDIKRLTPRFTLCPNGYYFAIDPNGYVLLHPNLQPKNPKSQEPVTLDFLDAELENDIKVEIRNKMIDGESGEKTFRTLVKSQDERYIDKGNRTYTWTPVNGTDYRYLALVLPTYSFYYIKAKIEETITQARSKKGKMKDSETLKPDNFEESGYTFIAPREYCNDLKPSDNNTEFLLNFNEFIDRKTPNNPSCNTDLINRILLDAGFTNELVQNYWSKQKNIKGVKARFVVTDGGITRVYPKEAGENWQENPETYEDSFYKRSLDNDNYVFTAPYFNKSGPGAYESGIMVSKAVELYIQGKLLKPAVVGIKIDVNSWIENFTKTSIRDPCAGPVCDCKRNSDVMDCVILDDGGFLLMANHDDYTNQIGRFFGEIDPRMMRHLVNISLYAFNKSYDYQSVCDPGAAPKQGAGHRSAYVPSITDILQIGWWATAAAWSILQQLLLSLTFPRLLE
T4 sequence (P54290 945-1091 partner limits assumed, other chains not shown): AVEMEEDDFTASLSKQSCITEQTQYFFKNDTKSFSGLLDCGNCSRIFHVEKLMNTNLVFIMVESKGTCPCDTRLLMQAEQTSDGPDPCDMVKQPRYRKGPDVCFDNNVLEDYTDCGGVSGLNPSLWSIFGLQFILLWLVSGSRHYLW
Description: The protocols for these experiments are given below.
Determination of the Activity of al Antagonists at Calcium Channels
Briefly, the tissue was minced and homogenized in 50 mM Tris-HCl (pH 7.4) containing 0.1 mM phenylmethylsulfonyl fluoride. The homogenates were centrifuged at 1000 g for 15 minutes, the resulting supernatant was centrifuged at 45,000 g for 15 minutes. The 45,000 g pellet was suspended in buffer and centrifuged a second time. Aliquots of membrane protein were incubated for 30 minutes at 37° C. in the presence of [3H]nitrendipine (1 nM), and nonspecific binding was determined in the presence of 10 μM nifedipine. The bound radioligand was separated by filtration through GF/B filters using a cell harvester.

[4] = pKi alpha-1 1b, cloned human α1B receptor, LM(tk−) cell membranes
[5] = pKi alpha-1 1a, [3H]prazosin, cloned human α1A receptor, LM(tk−) cell membranes
[6] = pKi alpha-1 1c, cloned human α1C receptor, LM(tk−) cell membranes
[7] = [3H]nitrendipine, rat cardiac muscle membrane fragments, L-type calcium channel, read-out: pKi Ca (converted)
[8] = cloned human receptor, LM(tk-) cell membranes, mean, read-out: PKi alpha-1 1b (converted)
[9] = [3H]prazosin, cloned human receptor, LM(tk-) cell membranes, mean, read-out: PKi alpha-1 1a (converted)
[10] = cloned human receptor, LM(tk-) cell membranes, mean, read-out: PKi alpha-1 1c (converted)
[11] = [3H]nitrendipine, rat cardiac muscle membranes, mean, read-out: PKi Ca (converted)
[12] = PKi alpha-1 1b, cloned human receptor, LM(tk-) cell membranes, mean
[13] = PKi alpha-1 1a, [3H]prazosin, cloned human receptor, LM(tk-) cell membranes, mean
[14] = PKi alpha-1 1c, cloned human receptor, LM(tk-) cell membranes, mean

Molecule `CCNC(=O)C1=C(CC)NC(CC)=C(C(=O)NCCCN2CCC(c3ccccc3)(c3ccccc3)CC2)C1c1ccc([N+](=O)[O-])cc1` (centres unmarked) [Example 129, 2,6-Diethyl-5-(N-ethyl)carboxamido-1,4-dihydro-4-(4-nitrophenyl)-3-{N-[3-(4,4-diphenylpiperidin-1-yl)propyl]}carboxamidopyridine] has a melting point of 101 to 104 °C, a Ki [1, 4] of 513 nM and a Ki [2, 5] of 676 nM. The Ki [3, 6] was 3.72 nM and the Ki (L-type calcium channel; [7]) was 100000 nM.

`COC(=O)C1=C(C)NC(C)=C(C(=O)OCCCN(C)C)C1c1ccc([N+](=O)[O-])cc1.Cl` (centres unmarked) [Example 44, 1,4-Dihydro-5-methoxycarbonyl-2,6-dimethyl-3-{3-[(N,N-dimethyl)amino]propoxy}carbonyl-4-(4-nitrophenyl) pyridine hydrochloride] gave a melting point of 120 to 121 °C, a Ki ([1]; cloned human receptor in LM(tk-) cell membranes, SEM and n in lines below, read-out: pKi alpha-1 1b (converted)) of 8320 nM and a Ki ([2]; [3H]prazosin, cloned human receptor in LM(tk-) cell membranes, SEM and n in lines below, read-out: pKi alpha-1 1a (converted)) of 5890 nM. The Ki ([3]; cloned human receptor in LM(tk-) cell membranes, SEM and n in lines below, read-out: pKi alpha-1 1c (converted)) was 1700 nM and the Ki (L-type calcium channel; [3H]nitrendipine, rat cardiac muscle membranes, SEM and n in lines below, read-out: pKi Ca (converted)) was 16600 nM.

In the case of `CCNC(=O)C1=C(CC)NC(COCCN=[N+]=[N-])=C(C(=O)NCCCN2CCC(C(=O)OC)(c3ccccc3)CC2)C1c1ccc([N+](=O)[O-])cc1` (centres unmarked) [Example 230, 2-((2-Azidoethyl)oxy)methyl-6-ethyl-5-N-ethylcarboxamido-1,4-dihydro-3-(N-(3-(4-methoxycarbonyl-4-phenylpiperidin-1-yl)propyl))carboxamido-4-(4-nitro)phenylpyridine], the melting point is reported as 70 °C (dec.), the Ki [1, 8] is reported as 692 nM and the Ki [2, 9] is reported as 1780 nM. For the same molecule, the Ki [3, 10] was 8.71 nM and the Ki (L-type calcium channel; [11]) was 9120 nM.

For `CCC1=C(C(=O)OC)C(c2ccc([N+](=O)[O-])cc2)C(C(=O)NCCCN2CCC(C(=O)OC)(c3ccccc3)CC2)=C(COCCN=[N+]=[N-])N1` (centres unmarked) [Example 232, 2-((2-Azidoethyl)oxy)methyl-6-ethyl-5-methoxycarbonyl-3-(N-(3 (4-methoxycarbonyl-4-phenylpiperidin-1-yl)propyl))carbo xamido-1,4-dihydro-4-(4-nitro)phenylpyridine], the melting point was 50 to 60 °C, the Ki [1, 8] was 219 nM and the Ki ([2]; PKi alpha-1 1a) was 417 nM. It also gave a Ki [3, 10] of 7.59 nM and a Ki (L-type calcium channel; PKi Ca) of 692 nM.

For `CCNC(=O)C1=C(C)NC(C)=C(C(=O)NCCCN2CCC(c3ccccc3)(c3ccccc3)CC2)C1c1ccc([N+](=O)[O-])cc1` (centres unmarked) [Example 131, 5-(N-Ethyl)carboxamido-1,4-dihydro-2,6-dimethyl-4-(4-nitrophenyl)-3-{N-[3-(4,4-diphenylpiperidin-1-yl)propyl]}carboxamidopyridine], the melting point was 104 to 108 °C, the Ki [1, 4] was 851 nM and the Ki [2, 5] was 1480 nM. For the same molecule, the Ki [3, 6] was 4.57 nM and the Ki (L-type calcium channel; [7]) was 100000 nM.

In the case of `CCC1=C(C(=O)NCCCN2CCC(c3ccccc3)(c3ccccc3)CC2)C(c2ccc([N+](=O)[O-])cc2)C(C(=O)NC(C)C)=C(CC)N1` (centres unmarked) [Example 132], the melting point is reported as 201 °C (dec.), the Ki [1, 4] is reported as 389 nM and the Ki [2, 5] is reported as 776 nM. It also gave a Ki [3, 6] of 57.5 nM and a Ki (L-type calcium channel; [7]) of 79400 nM.

Work on `CCC1=C(C(=O)NC)C(c2ccc([N+](=O)[O-])cc2)C(C(=O)NCCCN2CCC(C(=O)OC)(c3ccccc3)CC2)=C(COCCN=[N+]=[N-])N1` (centres unmarked) [Example 228, 2-((2-Azidoethyl)oxy)methyl-6-ethyl-1,4-dihydro-3-(N-(3-(4-methoxycarbonyl-4-phenylpiperidin-1-yl)propyl))carbo xamido-5-N-methylcarboxamido-4-(4-nitro)phenylpyridine] yielded a melting point of 73 to 83 °C, a Ki [1, 8] of 1480 nM and a Ki [2, 9] of 3470 nM. The Ki [3, 10] was 16.6 nM and the Ki (L-type calcium channel; [11]) was 33900 nM.

With `CCC1=C(C(=O)OCCC#N)C(c2ccc([N+](=O)[O-])cc2)C(C(=O)NCCCN2CCC(C#N)(c3ccccc3)CC2)=C(COC)N1` (centres unmarked) [Example 220, 5-(2-Cyanoethoxy)carbonyl-3-(N-(3-(4-cyano-4-phenylpiperidin-1-yl)propyl))carboxamido-6-ethyl-1,4-dihydro-2-methyloxymethyl-4-(4-nitro)phenylpyridine] the melting point was 58 to 68 °C, the Ki [1, 12] was 525 nM and the Ki [2, 13] was 2140 nM. For the same molecule, the Ki [3, 14] was 9.77 nM and the Ki (L-type calcium channel; [11]) was 437000 nM.

Molecule `CC1=C(C(N)=O)C(c2ccc([N+](=O)[O-])cc2)C(C(=O)NCCCN2CCC(c3ccccc3)CC2)=C(COCCN=[N+]=[N-])N1` (centres unmarked) [Example 216, 2-((Azidoethyl)oxy)methyl-5-carboxamido-1,4-dihydro-6-methyl-4-(4-nitro)phenyl-3-(N-(3-(4-phenylpiperidin-1-yl)propyl))carboxamidopyridine] has a Ki [1, 8] of 7.08 nM, a Ki [2, 9] of 60.3 nM and a Ki [3, 10] of 1.7 nM. The Ki (L-type calcium channel; [11]) was 1000 nM.

`CCC1=C(C(=O)NC)C(c2ccc([N+](=O)[O-])cc2)C(C(=O)NCCCN2CCC(c3ccccc3)(c3ccccc3)CC2)=C(COCCN=[N+]=[N-])N1` (centres unmarked) [Example 224, 2-((2-Azidoethyl)oxy)methyl-6-ethyl-1,4-dihydro-5-N-methylcarboxamido-4-(4-nitro)phenyl-3-(N-(3-(4,4-diphenylpiperidin-1-yl)propyl))carboxamidopyridine] gave a Ki [1, 12] of 263 nM, a Ki [2, 13] of 661 nM and a Ki [3, 14] of 6.92 nM. It also gave a Ki (L-type calcium channel; [11]) of 15100 nM.

With `CNC(=O)C1=C(C)NC(C)=C(C(=O)NCCCN2CCC(C(=O)OC)(c3ccccc3)CC2)C1c1ccc([N+](=O)[O-])cc1` (centres unmarked) [Example 187, 1,4-Dihydro-2,6-dimethyl-3-{N-[3-(4-methoxycarbonyl-4-phenylpiperidin-1-yl)propyl]}carboxamido-5-(N-methyl) carboxamido-4-(4nitrophenyl)pyridine] the melting point was 122 to 123 °C and the Ki (L-type calcium channel; PKi Ca, [3H]nitrendipine, rat cardiac muscle membranes, mean) was 513000 nM.
